Experimental data as given in publication PMC6274786 (International Journal of Molecular Sciences, 2018).
pIC50, pKi: −log10 of the molar value. “Also recorded” adds a separate entry of the source. Read-outs that look alike come from different tables or passages of the source.

How the values were obtained:
Hepatoma HepG2 cell line = assay: Antiproliferative assay (MTS), HepG2; type: cell-based; conditions: 72 h incubation
Method: (§1) Human embryonic kidney (HEK)-293 cell line (ATCC CRL-1573) was kindly donated by Prof. Dr. […] (Pharmaceutical Institute, Pharmaceutical Chemistry I, University of Bonn). Hepatoma HepG2 (ATCC HB-8065) cell line was kindly donated by the Department of Pharmacological Screening, Jagiellonian University Medical College. The cell cultures' growth conditions in presence of H3R antagonist 4 were applied as described before. The cells' viability was assessed after 72 h of incubation with H3R antagonist and the following references: doxorubicin (Sigma-Aldrich) and carbonyl cyanide 3-chlorophenylhydrazone (CCCP) (Sigma-Aldrich). CellTiter 96® AQueous non-radioactive cell proliferation assay (MTS) was purchased from Promega® and added to each well in the volume of 20 μL. The cells were then incubated for 2-5 h. The microplate reader EnSpire (PerkinElmer Ltd., Waltham, MA, USA) was used to measure the absorbance at 490 nm.

HEK-293 cell line = assay: Antiproliferative assay (MTS), HEK-293; type: cell-based, human; conditions: 72 h incubation
Method: as §1

human H1 receptor = target: T1, human H1 receptor (Homo sapiens, UniProt P35367); assay: Radioligand binding, membranes from CHO-K1 cells; conditions: for fold lower affinity at hH1- and H4Rs than at H3R: selectivity toward H3Rs
T1 construct: purchased PerkinElmer; host or cells: CHO-K1 cells, stably transfected (membranes)
Method: Radioligand binding was performed as previously described using membranes from CHO-K1 cells stably transfected with the human H1 receptor (PerkinElmer., Waltham, MA, USA). Data were fitted to a one-site curve-fitting equation with Prism 6 (GraphPad Software, city, state, country) and Ki values were estimated from the Cheng–Prusoff equation [44].

PTZ-induced seizure = assay: Pentylenetetrazole (PTZ)-induced seizure; type: in vivo, Wistar rats; conditions: for protective effect in PTZ-induced seizure (in words): observed over 30 min, vs saline-treated group; for PTZ-Induced Seizure (protection class): PTZ 60 mg/kg
Method: (§2) In this study and according to previously used protocols, two chemical agents have been used to induce seizures, namely pentylenetetrazole (PTZ, 60 mg/kg, i.p.) and strychnine (STR, 3.5 mg/kg, i.p.). PTZ 60 mg/kg or STR 3.5 mg/kg were administered i.p. to all groups of seven rats (n = 7), that is, animals pretreated with vehicle or test compounds 1–16. Vehicle, VPA (300 mg/kg, i.p.), [26, 47, 48, 49] or test compounds 1–16 (10 mg/kg, i.p.) were systemically administered 30–45 min before PTZ (60 mg/kg, i.p.) or STR (3.5 mg/kg, i.p.) injection, and animals were directly observed for any signs of convulsion for a duration of 30 min. The observed scores as well as percent protection against generalized tonic-clonic seizure (GTCS) were graded and scaled according to the Racine scale (stage 0, no change in behavior; stage 1, stereotype mouthing, eye blinking, and/or mild facial clonus; stage 2, head nodding and/or severe facial clonus; stage 3, myoclonic jerk in forelimbs; stage 4, clonic convulsions in the forelimbs with rearing; stage 5, generalized colonic convulsions associated with loss of balance) to evaluate the protection provided by the respective test compound against seizures. The animals were divided into eighteen groups of seven rats (n = 7) and treated as follows.
(§3) (1) Control group injected with vehicle + PTZ (SAL group), (2) positive control group in which rats were injected with VPA (300 mg/kg) + PTZ (VPA group), and animals in the test groups (3)–(18) were systemically administered with test compounds 1–16 (10 mg/kg), respectively. An additional PTZ experiment was conducted using three different groups of seven rats (n = 7), the H3R ligand with the most promising protection in PTZ model was administered at doses of 2.5, 5, or 15 mg/kg, i.p. 30–45 min before the PTZ challenge. […] The same experimental procedure was followed in the STR-induced seizure model applying the reference drug VPA, which was used at a dose of 300 mg/kg, i.p. (Figure 3, Table 2).

CYP2D6 = CYP2D6 (Homo sapiens, UniProt P10635); assay: Luminescent CYP2D6 P450-Glo assay
Method: The metabolic interactions of H3R antagonist 4 were determined by the luminescent P450-Glo™ 3A4 and 2D6 assays purchased from Promega®. All enzymatic reactions were performed according to the manufacturer protocols and as previously described. […] The luminescence was measured with a microplate reader EnSpire (PerkinElmer). The final concentration of H3R antagonist 4 was in the range of 0.1–25 µM, whereas reference inhibitory effects ranged from 0.01 µM to 10 µM. The IC50 values’ calculations were performed by GraphPad Prism™ software (version 5.01, San Diego, CA, USA).

MES-induced seizure = assay: Maximal electroshock (MES)-induced seizure; type: in vivo, Wistar rats; conditions: for protective effect in MES-induced seizure (in words): vs saline-treated group; for MES-Induced Seizure (protection class): 50 Hz, 120 mA, 1 s
Text: As previously described, the seizures were induced in rats with a 50 Hz alternating current of 120 mA intensity. The current was applied through ear electrodes for 1 s. Protection against the spread of MES-induced seizure was defined as the abolition of the tonic hind limb extension (THLE) component of the seizure. For the first screening of protective effects of test compounds 1–16 in the MES-induced seizure model, the animals were divided into eighteen groups of seven rats (n = 7) as follows; group (1) control group injected with vehicle (SAL), group (2) positive control group in which rats were injected with PHT at a dose of 10 mg/kg (this being the minimal dose of PHT that protected animals against the spread of MES-induced seizures without mortality), and groups (3)–(18) animals in the experimental groups were administered H3R antagonists 1–16 at a dose of 10 mg/kg. In another MES experiment in three separate groups of six rats (n = 6), H3R antagonist 4 with the most promising protection in MES model was administered at doses of 2.5, 5, or 15 mg/kg, i.p. 30–45 min before the MES challenge.

hH4R = target: T2, hH4R (Homo sapiens, UniProt Q9H3N8); assay: H4R radioligand displacement assay, Sf9 cell membrane preparations; type: binding
T2 construct: expressed in transfected cells; host or cells: Sf9 insect cells (membrane preparations)
Method: H4R radioligand displacement assays were performed with Sf9 cell membrane preparations, expressing the hH4R, as described previously. Assays ran in triplicates with four appropriate concentrations of the test compound. Data were analyzed by GraphPad Prism 7, using the “one-site competition” equation.

STR-induced seizure = assay: Strychnine (STR)-induced seizure; type: in vivo, Wistar rats; conditions: for protective effect in STR-induced seizure (in words): 30 min observation, vs saline-treated group; for STR-Induced Seizure (protection class): STR 3.5 mg/kg
Method: as §2, §3

[1] = Metabolic stability in rat liver microsomes; type: in vitro ADME; conditions: RLMs, MS ion fragment analysis, metabolite M-I
Method: Rat liver microsomes (RLMs) purchased form Sigma-Aldrich (St. Louis, MO, USA) were used for in vitro determination of compound 4’s metabolic stability. The NADPH regeneration system was purchased from Promega (Madison, WI, USA). All experiments were performed as described before. The reaction mixture was preincubated at 37 °C for 5 min, and then the reaction was started by adding 50 µL of NADPH regeneration system. The reaction was ended after 120 min by the addition of cold methanol (200 µL). The mixture was then centrifuged at 14,000 rpm for 15 min and the ultra-performance liquid chromatography–mass spectrometry (UPLC/MS) analysis of the supernatant was conducted. Ion fragment analyses were also performed for metabolic pathways’ determination.

human histamine H3R = target: T3, human histamine H3R (Homo sapiens, UniProt Q9Y5N1); assay: [3H]Nα-methylhistamine radioligand displacement assay, HEK-293 cell membranes; type: binding
T3 construct: expressed in transfected cells
Method: As described previously, the affinity for the human histamine H3R was tested utilizing radioligand displacement assays with [^3H]N^α-methylhistamine at membrane preparations from human embryonic kidney (HEK)-293 cells, stably expressing the receptor. […] The analysis of data was conducted by the software GraphPad Prism 7 (San Diego, CA, USA), using the “one-site competition” equation. Ki values were calculated from the 50 percent of inhibitory concentration (IC50) values according to the Cheng-Prusoff equation [44]

[2] = 10 mg/kg i.p. co-administered with RAMH 10 mg/kg i.p.

T1 sequence (P35367 whole entry): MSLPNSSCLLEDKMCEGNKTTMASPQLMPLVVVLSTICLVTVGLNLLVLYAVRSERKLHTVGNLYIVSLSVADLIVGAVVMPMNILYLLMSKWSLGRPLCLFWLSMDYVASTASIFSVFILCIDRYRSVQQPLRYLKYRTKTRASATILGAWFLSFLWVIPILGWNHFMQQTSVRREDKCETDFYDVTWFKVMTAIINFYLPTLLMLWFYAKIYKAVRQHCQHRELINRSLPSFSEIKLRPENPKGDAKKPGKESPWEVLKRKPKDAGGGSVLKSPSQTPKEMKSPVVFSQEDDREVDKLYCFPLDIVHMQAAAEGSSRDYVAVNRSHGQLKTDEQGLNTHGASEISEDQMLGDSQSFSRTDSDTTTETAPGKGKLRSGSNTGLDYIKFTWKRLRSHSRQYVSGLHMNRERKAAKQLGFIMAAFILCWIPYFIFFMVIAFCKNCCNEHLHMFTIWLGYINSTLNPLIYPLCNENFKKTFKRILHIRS
Sequence of CYP2D6 (P10635 whole entry): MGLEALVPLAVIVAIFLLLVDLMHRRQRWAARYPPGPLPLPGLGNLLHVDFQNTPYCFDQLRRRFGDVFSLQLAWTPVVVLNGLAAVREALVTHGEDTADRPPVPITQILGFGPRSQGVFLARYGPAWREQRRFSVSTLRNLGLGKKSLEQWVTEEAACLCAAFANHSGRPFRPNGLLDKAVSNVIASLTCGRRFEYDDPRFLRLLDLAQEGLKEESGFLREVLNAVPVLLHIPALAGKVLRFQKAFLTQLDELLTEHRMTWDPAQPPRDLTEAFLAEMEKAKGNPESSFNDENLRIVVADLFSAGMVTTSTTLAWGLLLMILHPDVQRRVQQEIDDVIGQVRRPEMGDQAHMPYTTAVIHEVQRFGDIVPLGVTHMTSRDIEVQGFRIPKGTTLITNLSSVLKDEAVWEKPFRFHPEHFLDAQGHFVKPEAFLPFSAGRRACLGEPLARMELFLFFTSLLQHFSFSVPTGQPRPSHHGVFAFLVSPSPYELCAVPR
T3 sequence (Q9Y5N1 whole entry): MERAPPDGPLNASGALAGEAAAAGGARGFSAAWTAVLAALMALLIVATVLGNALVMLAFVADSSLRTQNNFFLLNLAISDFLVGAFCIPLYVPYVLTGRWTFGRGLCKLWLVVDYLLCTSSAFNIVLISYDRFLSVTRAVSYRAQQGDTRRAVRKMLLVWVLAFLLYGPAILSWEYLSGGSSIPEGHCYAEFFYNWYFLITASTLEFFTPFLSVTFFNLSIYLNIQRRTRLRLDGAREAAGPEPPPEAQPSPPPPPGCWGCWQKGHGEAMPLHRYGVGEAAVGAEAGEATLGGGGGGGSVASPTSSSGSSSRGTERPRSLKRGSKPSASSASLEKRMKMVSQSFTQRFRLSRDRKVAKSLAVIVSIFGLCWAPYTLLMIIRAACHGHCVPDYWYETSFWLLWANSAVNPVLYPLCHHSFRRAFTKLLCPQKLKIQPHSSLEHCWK
T2 sequence (Q9H3N8 whole entry): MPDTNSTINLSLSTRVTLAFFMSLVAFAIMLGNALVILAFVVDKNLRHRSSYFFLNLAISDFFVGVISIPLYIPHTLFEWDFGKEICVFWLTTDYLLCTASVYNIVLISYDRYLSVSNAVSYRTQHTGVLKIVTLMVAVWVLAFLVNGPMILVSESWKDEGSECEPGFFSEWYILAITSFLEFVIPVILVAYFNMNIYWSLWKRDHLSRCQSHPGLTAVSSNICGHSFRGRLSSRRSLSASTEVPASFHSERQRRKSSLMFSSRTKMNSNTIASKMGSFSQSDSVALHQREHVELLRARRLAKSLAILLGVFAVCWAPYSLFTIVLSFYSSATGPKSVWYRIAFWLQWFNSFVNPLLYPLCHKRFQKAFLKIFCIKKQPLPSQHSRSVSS

| SMILES | concentration with significant decrease of HepG2 proliferation/viability (Hepatoma HepG2 cell line) | pKi (human H1 receptor) | fold lower affinity at hH1- and H4Rs than at H3R (human H1 receptor) | PTZ-Induced Seizure % Protection against GTCS (PTZ-induced seizure; 10 mg/kg i.p.) | PTZ-Induced Seizure Average Seizure Score (PTZ-induced seizure; 10 mg/kg i.p.) | protective effect in PTZ-induced seizure (in words) (PTZ-induced seizure; 10 mg/kg i.p.) | PTZ-Induced Seizure (protection class) (PTZ-induced seizure; 10 mg/kg i.p.) | protective effect in MES-induced seizure (in words) (MES-induced seizure; 10 mg/kg i.p.) | MES-Induced Seizure (protection class) (MES-induced seizure; 10 mg/kg i.p.) | pKi (hH4R) | STR-Induced Seizure % Protection against GTCS (STR-induced seizure; 10 mg/kg i.p.) | STR-Induced Seizure Average Seizure Score (STR-induced seizure; 10 mg/kg i.p.) | protective effect in STR-induced seizure (in words) (STR-induced seizure; 10 mg/kg i.p.) | STR-Induced Seizure (protection class) (STR-induced seizure; 10 mg/kg i.p.) | further results |
| --- | --- | --- | --- | --- | --- | --- | --- | --- | --- | --- | --- | --- | --- | --- | --- |
| N#CC(C#N)=NNc1cccc(Cl)c1 [CCCP, carbonyl cyanide 3-chlorophenylhydrazone, reference compound] | 10 µM |  |  |  |  |  |  |  |  |  |  |  |  |  |  |
| COc1cccc2c1C(=O)c1c(O)c3c(c(O)c1C2=O)C[C@@](O)(C(=O)CO)C[C@@H]3O[C@H]1C[C@H](N)[C@H](O)[C@H](C)O1 [DX, doxorubicin] |  |  |  |  |  |  |  |  |  |  |  |  |  |  | concentration with significant decrease of HEK-293 proliferation/viability (HEK-293 cell line): 1 µM |
| O=C(O)C(=O)O.c1ccc2cc(OCCCCCCN3CCCCCC3)ccc2c1 [Ligand 4, 1-(6-(naphthalen-2-yloxy)hexyl)azepane hydrogen oxalate] | 100 µM | 5.90 | at least 10 fold | 100% | 0.00 ± 0.00 ^& | full protective activities | ++ (high protective effect (THLE duration <1, seizure score 0)) | most promising protective effect | ++ (high protective effect (THLE duration <1, seizure score 0)) | < 5.00 | 28.57% | 4.57 ± 0.19 | failed to provide any appreciable protection; also recorded: failed to exhibit appreciable protection | − | PTZ-Induced Seizure % Protection against GTCS (PTZ-induced seizure; 2.5 mg/kg i.p.): 100%; PTZ-Induced Seizure Average Seizure Score (PTZ-induced seizure; 2.5 mg/kg i.p.): 2.29 ± 0.44; PTZ-Induced Seizure % Protection against GTCS (PTZ-induced seizure; 5 mg/kg i.p.): 100%; PTZ-Induced Seizure Average Seizure Score (PTZ-induced seizure; 5 mg/kg i.p.): 0.71 ± 0.31 **^,#; PTZ-Induced Seizure % Protection against GTCS (PTZ-induced seizure; [2]): 100%; PTZ-Induced Seizure Average Seizure Score (PTZ-induced seizure; [2]): 0.29 ± 0.16; PTZ-Induced Seizure % Protection against GTCS (PTZ-induced seizure; 15 mg/kg i.p.): 100%; PTZ-Induced Seizure Average Seizure Score (PTZ-induced seizure; 15 mg/kg i.p.): 0.00 ± 0.00 ^&; pIC50 (CYP2D6): 6.17; fold higher CYP2D6 IC50 compared with reference drug QD (CYP2D6): 67 fold; MES-Induced Seizure Average THLE (MES-induced seizure; 2.5 mg/kg i.p.): 5.83 ± 1.01 s; MES-Induced Seizure Average THLE (s) (MES-induced seizure; 5 mg/kg i.p.): 2.50 ± 1.21 **^,# s; MES-Induced Seizure Average THLE (s) (MES-induced seizure; 10 mg/kg i.p.): 0.57 ± 0.21 **^,$ s; MES-Induced Seizure Average THLE (MES-induced seizure; [2]): 6.17 ± 0.59 s; MES-Induced Seizure Average THLE (s) (MES-induced seizure; 15 mg/kg i.p.): 3.67 ± 0.94 **^,# s; main metabolic pathway [1]: double-hydroxylation at the 6-n-hexylazepane moiety |
| CC1CCCN(CCCCCCOc2ccc(C(=O)c3ccccc3)cc2)C1.O=C(O)C(=O)O (stereo not shown) [Ligand 6, (4-(6-(3-methylpiperidin-1-yl)hexyloxy)phenyl)(phenyl)methanone hydrogen oxalate] |  | 5.87 to 6.04 |  |  |  |  | − |  | + (moderate protective effect (tonic hind limb extension (THLE) duration in the range of 2–5 s, seizure score in the range of 2–4)) |  |  |  |  | − | pKi (human histamine H3R): 7.28; pIC50 (CYP2D6; human): 6.17 |
| Fc1ccc(OCCCCCCN2CCCCCC2)cc1.O=C(O)C(=O)O [Ligand 13, 1-(6-(4-fluorophenoxy)hexyl)azepane hydrogen oxalate] |  | 5.87 | at least 10 fold | 85.71% | 2.14 ± 0.47 | weak protection | + (moderate protective effect (tonic hind limb extension (THLE) duration in the range of 2–5 s, seizure score in the range of 2–4)) | without protection | − | < 5.00 | 100% | 2.00 ± 0.35 | moderate protective effect | + (moderate protective effect (tonic hind limb extension (THLE) duration in the range of 2–5 s, seizure score in the range of 2–4)) | Ki (human histamine H3R; mean with 95% confidence interval, read-out: In Vitro Affinity Ki (hH3R) in nM [CI]): 137 nM; MES-Induced Seizure Average THLE (MES-induced seizure; 10 mg/kg i.p.): 6.43 ± 1.14 s; STR-Induced Seizure % Protection against GTCS (STR-induced seizure; 2.5 mg/kg i.p.): 14.29%; STR-Induced Seizure Average Seizure Score (STR-induced seizure; 2.5 mg/kg i.p.): 4.86 ± 0.13; STR-Induced Seizure % Protection against GTCS (STR-induced seizure; 5 mg/kg i.p.): 85.71%; STR-Induced Seizure Average Seizure Score (STR-induced seizure; 5 mg/kg i.p.): 3.00 ± 0.31; STR-Induced Seizure % Protection against GTCS (STR-induced seizure; [2]): 100%; STR-Induced Seizure Average Seizure Score (STR-induced seizure; [2]): 2.14 ± 0.35; STR-Induced Seizure % Protection against GTCS (STR-induced seizure; 15 mg/kg i.p.): 100%; STR-Induced Seizure Average Seizure Score (STR-induced seizure; 15 mg/kg i.p.): 2.17 ± 0.31 |
